Data as given in the supplement of paper PMC11451515.

Test system: NOMO1
Experiment: cell viability relative to DMSO control; higher = less cytotoxic
Details: 48 h
How it was run: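 Leukemia cells (NOMO1 or SEM, 500 cells/well; P12-Ichikawa, 1000 cells/well) were seeded in 5 μl in 1536-well plates after at least four passages of adaptation to each medium. They received library compounds in DMSO by pin dosing, 11 threefold points from 47 μM to 0.79 nM. Luminescence with CellTiter-Glo One was read after 48 h at 37°C. Viability is stated per plate relative to DMSO wells, with cell-free wells as background.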

[1] = HPLM + 10% dialyzed FBS, 0.000781 µM
[2] = HPLM + 10% dialyzed FBS, 0.00234 µM
[3] = HPLM + 10% dialyzed FBS, 0.00702 µM
[4] = HPLM + 10% dialyzed FBS, 0.0211 µM
[5] = HPLM + 10% dialyzed FBS, 0.0632 µM
[6] = HPLM + 10% dialyzed FBS, 0.19 µM
[7] = HPLM + 10% dialyzed FBS, 0.569 µM
[8] = HPLM + 10% dialyzed FBS, 1.71 µM
[9] = HPLM + 10% dialyzed FBS, 5.12 µM
[10] = HPLM + 10% dialyzed FBS, 15.4 µM
[11] = HPLM + 10% dialyzed FBS, 46.1 µM
[12] = RPMI 5 mM glucose + 10% FBS, 0.000781 µM
[13] = RPMI 5 mM glucose + 10% FBS, 0.00234 µM
[14] = RPMI 5 mM glucose + 10% FBS, 0.00702 µM
[15] = RPMI 5 mM glucose + 10% FBS, 0.0211 µM
[16] = RPMI 5 mM glucose + 10% FBS, 0.0632 µM
[17] = RPMI 5 mM glucose + 10% FBS, 0.19 µM
[18] = RPMI 5 mM glucose + 10% FBS, 0.569 µM
[19] = RPMI 5 mM glucose + 10% FBS, 1.71 µM
[20] = RPMI 5 mM glucose + 10% FBS, 5.12 µM
[21] = RPMI 5 mM glucose + 10% FBS, 15.4 µM
[22] = RPMI 5 mM glucose + 10% FBS, 46.1 µM
[23] = RPMI 5 mM glucose + 10% dialyzed FBS, 0.000781 µM
[24] = RPMI 5 mM glucose + 10% dialyzed FBS, 0.00234 µM
[25] = RPMI 5 mM glucose + 10% dialyzed FBS, 0.00702 µM
[26] = RPMI 5 mM glucose + 10% dialyzed FBS, 0.0211 µM
[27] = RPMI 5 mM glucose + 10% dialyzed FBS, 0.0632 µM
[28] = RPMI 5 mM glucose + 10% dialyzed FBS, 0.19 µM
[29] = RPMI 5 mM glucose + 10% dialyzed FBS, 0.569 µM
[30] = RPMI 5 mM glucose + 10% dialyzed FBS, 1.71 µM
[31] = RPMI 5 mM glucose + 10% dialyzed FBS, 5.12 µM
[32] = RPMI 5 mM glucose + 10% dialyzed FBS, 15.4 µM
[33] = RPMI 5 mM glucose + 10% dialyzed FBS, 46.1 µM

| SMILES | cell viability [1] | cell viability [2] | cell viability [3] | cell viability [4] | cell viability [5] | cell viability [6] | cell viability [7] | cell viability [8] | cell viability [9] | cell viability [10] | cell viability [11] | cell viability [12] | cell viability [13] | cell viability [14] | cell viability [15] | cell viability [16] | cell viability [17] | cell viability [18] | cell viability [19] | cell viability [20] | cell viability [21] | cell viability [22] | cell viability [23] | cell viability [24] | cell viability [25] | cell viability [26] | cell viability [27] | cell viability [28] | cell viability [29] | cell viability [30] | cell viability [31] | cell viability [32] | cell viability [33] |
| --- | --- | --- | --- | --- | --- | --- | --- | --- | --- | --- | --- | --- | --- | --- | --- | --- | --- | --- | --- | --- | --- | --- | --- | --- | --- | --- | --- | --- | --- | --- | --- | --- | --- |
| C\C1=C(\C=C(\C#N)C(=O)N1)C2=CC=NC=C2 | 98.3% | 114% | 117% | 116% | 133% | 118% | 123% | 131% | 114% | 103% | 108% | 94.7% | 108% | 110% | 104% | 109% | 111% | 106% | 127% | 103% | 97.5% | 71.5% | 112% | 108% | 119% | 118% | 115% | 114% | 120% | 115% | 114% | 110% | 81.2% |
| COc1ncc(-c2ccc3nccc(-c4ccnnc4)c3c2)cc1N[S+](=O)([O-])c1ccc(F)cc1F | 95.5% | 81.2% | 76.8% | 89.6% | 75.1% | 66.3% | 60.5% | 45.8% | 41.7% | 31.9% | 29.7% | 121% | 96.1% | 92.3% | 79.8% | 76% | 72.8% | 69.7% | 43.1% | 29.9% | 27.8% | 21% | 104% | 92.1% | 86.2% | 76.6% | 72.9% | 62.6% | 64% | 44.7% | 38.1% | 29.7% | 19.9% |
| COc1cc(OC)c(/C=C/[S+](=O)([O-])Cc2ccc(OC)c(NCC(=O)[O][Na])c2)c(OC)c1 | 120% | 113% | 119% | 118% | 126% | 60.3% | 43.7% | 47.7% | 44% | 42.5% | 34.4% | 110% | 104% | 102% | 121% | 109% | 99.6% | 27.6% | 23.9% | 27% | 26.7% | 24.9% | 111% | 128% | 111% | 117% | 122% | 37.5% | 31.7% | 26.1% | 26.2% | 23.6% | 24.1% |
| O=C(Nc1ccccc1-c1cn2c(CN3CCNCC3)csc2n1)c1cnc2ccccc2n1 | 91.8% | 83% | 71.9% | 77.7% | 82.6% | 92% | 81.9% | 66.6% | 79.3% | 74.2% | 76.3% | 76.6% | 80.6% | 82.9% | 85.1% | 79.7% | 85.3% | 70.3% | 68.1% | 77.1% | 65.6% | 0.639% | 86.3% | 84.6% | 96% | 90.5% | 80% | 80.2% | 74.2% | 86.8% | 79.4% | 69% | 75.1% |
| CN(C)[C@H]\1[C@@H]2C[C@H]3C(=C(O)\[C@]2(O)C(=O)\C(=C1O)C(N)=O)/C(=O)C4=C(O)C=CC=C4[C@@]3(C)O | 104% | 111% | 104% | 109% | 111% | 106% | 120% | 95.1% | 121% | 97.1% | 99.6% | 117% | 124% | 118% | 125% | 108% | 102% | 119% | 110% | 102% | 104% | 106% | 104% | 116% | 112% | 115% | 112% | 102% | 110% | 95% | 110% | 101% | 93.4% |
| CC/1=C(/N2[C@H](SC1)[C@H](NC(=O)[C@H](N)\C3=C\C\C=C/C3)C2=O)C(O)=O | 97.5% | 110% | 103% | 109% | 108% | 121% | 123% | 135% | 121% | 115% | 121% | 110% | 119% | 114% | 118% | 119% | 124% | 109% | 117% | 129% | 125% | 127% | 102% | 109% | 104% | 124% | 115% | 108% | 114% | 121% | 126% | 109% | 118% |
| CN1CCCN=C1/C=C/c1cccs1.O=C(O)c1cc2ccccc2c(Cc2c(O)c(C(=O)O)cc3ccccc23)c1O | 114% | 111% | 126% | 108% | 122% | 112% | 123% | 120% | 104% | 34.1% | 17.2% | 115% | 121% | 129% | 112% | 114% | 111% | 117% | 137% | 109% | 92.7% | 29.3% | 120% | 127% | 114% | 104% | 110% | 110% | 119% | 110% | 110% | 64.4% | 28.9% |
